{"source": "patent US20160108004A1", "about": "“TREATMENT OR PREVENTION OF NEURODEGENERATIVE DISORDERS USING MENTHOL, LINALOOL AND/OR ICILIN” (NESTEC S.A., priority 2013, published 2016)", "key": {"[1]": {"tested_on": "Lateral Amygdala glutamatergic neuron", "assay": "whole cell, current clamp recordings with increasing concentration of gabazine (spontaneous action potential bursts)", "format": "cell-based, mouse", "from_the_text": "(§1) A mouse brain slice was used to study the effects of Menthol, Linalool and Icilin. The amygdaloid complex is located within the medial temporal lobe in neocortex and amygdala. The lateral and basolateral nuclei of the amygdaloid complex receive sensory information from cortical and thalamic structures, process the information, and then transmit the information, either directly or through the basal nucleus, to the central nucleus. For experimental analysis of neural activity, synaptic responses from the basolateral complex can be evoked electrically using electrodes, and the action potentials can be measured."}, "[2]": {"tested_on": "Lateral Amygdala glutamatergic neuron", "assay": "whole cell, current clamp recordings in a Lateral Amygdala glutamatergic neuron (mouse brain slice)", "format": "cell-based", "details": "for inactivation of the sodium fast channels relative to control: square pulse of 2.5 s at high depolarization of membrane potential (approximately −30 mV), FIG. 2", "from_the_text": "as §1\nA square pulse of 2.5 s was applied at high depolarization of membrane potential (approximately −30 mV)."}}, "data": [{"smiles": "COc1ccc(-c2ccc(=N)n(CCCC(=O)O)n2)cc1", "note": "[gabazine, reference compound]", "values": [{"measurement": "spontaneous action potential bursts", "setting": "[1]; increasing concentrations of gabazine applied extracellularly, recordings of 5 min each, washout 10 min, FIG. 3", "result": "neurons spontaneously present action potential bursts"}]}, {"smiles": "O=C1NC(c2cccc([N+](=O)[O-])c2)=CCN1c1ccccc1O", "note": "[Icilin]", "values": [{"measurement": "amount of current required to trigger an action potential", "setting": "[2]", "result": "increase the amount of current required to trigger an action potential"}, {"measurement": "threshold to trigger an action potential", "setting": "[2]", "result": "increase the threshold to trigger an action potential"}, {"measurement": "action potentials at higher stimulation levels", "setting": "[2]", "result": "abort action potentials at higher stimulation levels"}, {"measurement": "inactivation of the sodium fast channels relative to control", "setting": "[2]", "result": "inactivation of the sodium fast channels happens sooner relative to control"}]}, {"smiles": "C=CC(C)(O)CCC=C(C)C", "note": "(centres unmarked) [Linalool]", "values": [{"measurement": "amount of current required to trigger an action potential", "setting": "[2]", "result": "increase the amount of current required to trigger an action potential"}, {"measurement": "threshold to trigger an action potential", "setting": "[2]", "result": "increase the threshold to trigger an action potential"}, {"measurement": "action potentials at higher stimulation levels", "setting": "[2]", "result": "abort action potentials at higher stimulation levels"}, {"measurement": "inactivation of the sodium fast channels relative to control", "setting": "[2]", "result": "inactivation of the sodium fast channels happens sooner relative to control"}]}, {"smiles": "CC1CCC(C(C)C)C(O)C1", "note": "(centres unmarked) [Menthol]", "values": [{"measurement": "spontaneous bursts in the presence of gabazine", "setting": "[1]; Menthol 250 μM applied extracellularly 10 minutes previous to and during exposure to increasing concentrations of gabazine, FIG. 5 compared to FIG. 3", "result": "complete absence or a strongly decreased presence of spontaneous bursts"}, {"measurement": "amount of current required to trigger an action potential", "setting": "[2]", "result": "increase the amount of current required to trigger an action potential"}, {"measurement": "threshold to trigger an action potential", "setting": "[2]", "result": "increase the threshold to trigger an action potential"}, {"measurement": "action potentials at higher stimulation levels", "setting": "[2]", "result": "abort action potentials at higher stimulation levels"}, {"measurement": "inactivation of the sodium fast channels relative to control", "setting": "[2]", "result": "inactivation of the sodium fast channels happens sooner relative to control"}]}]}
